In PubChem BioAssay (NCI):
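In this assay, cells in 96-well plates receive the compound at five concentrations for 48 hours. Endpoints are linearly interpolated between the surrounding concentrations. TGI is the concentration that stops growth completely.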

Legend:
Test in all cases: NCI-60 cell line screen, 48 h
[1] = tested on: SK-MEL-28 melanoma
[2] = tested on: SK-MEL-5 melanoma
[3] = tested on: DMS 273 small cell lung
[4] = tested on: SNB-78 CNS
[5] = tested on: HCT-15 colon
[6] = tested on: EKVX NSCLC
[7] = tested on: DMS 114 small cell lung
[8] = tested on: RXF-631 renal
[9] = tested on: SNB-19 CNS
[10] = tested on: SN12C renal
[11] = tested on: NCI-H460 lung
[12] = tested on: IGROV1 ovarian
[13] = tested on: MOLT-4 leukemia
[14] = tested on: SK-MEL-2 melanoma
[15] = tested on: NCI-H226 lung
[16] = tested on: KM20L2 colon
[17] = tested on: SR leukemia
[18] = tested on: UACC-257 melanoma
[19] = tested on: ACHN renal
[20] = tested on: A549 NSCLC
[21] = tested on: MALME-3M melanoma
[22] = tested on: XF 498 CNS
[23] = tested on: SF-268 CNS
[24] = tested on: SW-620 colon
[25] = tested on: CAKI-1 renal
[26] = tested on: RPMI-8226 leukemia
[27] = tested on: SNB-75 CNS
[28] = tested on: HCC-2998 colon
[29] = tested on: LXFL 529 NSCLC
[30] = tested on: OVCAR-8 ovarian
[31] = tested on: SF-539 CNS
[32] = tested on: HCT-116 colon
[33] = tested on: DLD-1 colon
[34] = tested on: NCI-H23 lung
[35] = tested on: HT29 colon
[36] = tested on: SF-295 CNS
[37] = tested on: OVCAR-4 ovarian
[38] = tested on: KM12 colon
[39] = tested on: COLO 205 colon
[40] = tested on: UO-31 renal
[41] = tested on: RXF 393 renal
[42] = tested on: CCRF-CEM leukemia
[43] = tested on: HOP-92 NSCLC
[44] = tested on: M14 melanoma
[45] = tested on: K-562 leukemia
[46] = tested on: U251 CNS
[47] = tested on: TK-10 renal
[48] = tested on: HL-60(TB) leukemia
[49] = tested on: HOP-18 NSCLC
[50] = tested on: A498 renal
[51] = tested on: OVCAR-5 ovarian
[52] = tested on: LOX IMVI melanoma

CSc1cc(-c2cc3ccccc3o2)oc(=O)c1C#N
TGI [1]: > 100 µM | TGI [2]: > 100 µM | TGI [3]: > 100 µM | TGI [4]: > 100 µM | TGI [5]: > 100 µM | TGI [6]: > 100 µM | TGI [7]: > 100 µM | TGI [8]: > 100 µM | TGI [9]: > 100 µM | TGI [10]: > 100 µM | TGI [11]: > 100 µM | TGI [12]: > 100 µM | TGI [13]: > 100 µM | TGI [14]: > 100 µM | TGI [15]: 4.31 µM | TGI [16]: > 100 µM | TGI [17]: 50 µM | TGI [18]: > 100 µM | TGI [19]: > 100 µM | TGI [20]: > 100 µM | TGI [21]: > 100 µM | TGI [22]: > 100 µM | TGI [23]: > 100 µM | TGI [24]: > 100 µM | TGI [25]: > 100 µM | TGI [26]: > 100 µM | TGI [27]: > 100 µM | TGI [28]: > 100 µM | TGI [29]: > 100 µM | TGI [30]: > 100 µM | TGI [31]: > 100 µM | TGI [32]: > 100 µM | TGI [33]: > 100 µM | TGI [34]: > 100 µM | TGI [35]: > 100 µM | TGI [36]: > 100 µM | TGI [37]: > 100 µM | TGI [38]: > 100 µM | TGI [39]: > 100 µM | TGI [40]: > 100 µM | TGI [41]: > 100 µM | TGI [42]: > 100 µM | TGI [43]: 2.33 µM | TGI [44]: > 100 µM | TGI [45]: > 100 µM | TGI [46]: > 100 µM | TGI [47]: 73.4 µM | TGI [48]: > 100 µM | TGI [49]: > 100 µM | TGI [50]: > 100 µM | TGI [51]: > 100 µM | TGI [52]: > 100 µM
